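Where inhibition never reached the appropriate level, the endpoint shown equals the highest concentration tested. Otherwise, values were interpolated linearly from a five-concentration, 48-hour dose response in 96-well plates. Definition used: TGI = concentration required for complete inhibition of growth.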
What was measured:
Assay in all cases: NCI anticancer screen, dose series, 48 h
[1] = test system: UO-31 renal
[2] = test system: UACC-62 melanoma
[3] = test system: SK-MEL-2 melanoma
[4] = test system: CCRF-CEM leukemia
[5] = test system: HCT-116 colon
[6] = test system: HCC-2998 colon
[7] = test system: MDA-MB-231 breast
[8] = test system: NCI-H460 lung
[9] = test system: A498 renal
[10] = test system: RXF 393 renal
[11] = test system: SNB-75 CNS
[12] = test system: NCI-H23 lung
[13] = test system: SF-539 CNS
[14] = test system: LOX IMVI melanoma
[15] = test system: OVCAR-5 ovarian
[16] = test system: NCI/ADR-RES ovarian
[17] = test system: OVCAR-4 ovarian
[18] = test system: K-562 leukemia
[19] = test system: RPMI-8226 leukemia
[20] = test system: MCF7 breast
[21] = test system: MALME-3M melanoma
[22] = test system: MDA-N
[23] = test system: IGROV1 ovarian
[24] = test system: T-47D breast
[25] = test system: 786-0 renal
[26] = test system: SK-MEL-5 melanoma
[27] = test system: ACHN renal
[28] = test system: U251 CNS
[29] = test system: MDA-MB-435
[30] = test system: SN12C renal
[31] = test system: SR leukemia
[32] = test system: HCT-15 colon
[33] = test system: HOP-92 NSCLC
[34] = test system: NCI-H522 lung
[35] = test system: HT29 colon
[36] = test system: HOP-62 NSCLC
[37] = test system: M14 melanoma
[38] = test system: KM12 colon
[39] = test system: BT-549 breast
[40] = test system: COLO 205 colon
[41] = test system: SK-MEL-28 melanoma
[42] = test system: EKVX NSCLC
[43] = test system: SNB-19 CNS
[44] = test system: MOLT-4 leukemia
[45] = test system: SF-295 CNS
[46] = test system: A549 NSCLC
[47] = test system: PC-3 prostate
[48] = test system: TK-10 renal
[49] = test system: OVCAR-8 ovarian
[50] = test system: UACC-257 melanoma
[51] = test system: CAKI-1 renal
[52] = test system: HS 578T breast
[53] = test system: SK-OV-3 ovarian
[54] = test system: OVCAR-3 ovarian
[55] = test system: HL-60(TB) leukemia
[56] = test system: SW-620 colon
[57] = test system: SF-268 CNS
[58] = test system: DU-145 prostate
[59] = test system: NCI-H226 lung

## C=CCNC1=C2C[C@@H](C)C[C@@H](OC)[C@H](OC(=O)CCN(C)C)[C@H](C)/C=C(\C)[C@@H](OC(N)=O)[C@H](OC)/C=C\C=C(/C)C(=O)NC(=CC1=O)C2=O
[1]
  TGI: 27.1 µM
[2]
  TGI: 11.9 µM
[3]
  TGI: 12.2 µM
[4]
  TGI: > 55.3 µM
[5]
  TGI: 16.5 µM
[6]
  TGI: 0.752 µM
[7]
  TGI: 8.89 µM
[8]
  TGI: 16.1 µM
[9]
  TGI: 21.4 µM
[10]
  TGI: 11.7 µM
[11]
  TGI: 0.741 µM
[12]
  TGI: 17.1 µM
[13]
  TGI: 16.8 µM
[14]
  TGI: 11.2 µM
[15]
  TGI: 25.8 µM
[16]
  TGI: > 80.3 µM
[17]
  TGI: 26.7 µM
[18]
  TGI: > 43.7 µM
[19]
  TGI: > 41.9 µM
[20]
  TGI: 14.9 µM
[21]
  TGI: 19.2 µM
[22]
  TGI: 14.3 µM
[23]
  TGI: 14.5 µM
[24]
  TGI: 12.8 µM
[25]
  TGI: 21.2 µM
[26]
  TGI: 12.7 µM
[27]
  TGI: 22.2 µM
[28]
  TGI: 21.1 µM
[29]
  TGI: 13.2 µM
[30]
  TGI: 17.9 µM
[31]
  TGI: > 32.5 µM
[32]
  TGI: 19.9 µM
[33]
  TGI: 29.2 µM
[34]
  TGI: 17.3 µM
[35]
  TGI: 12.8 µM
[36]
  TGI: 13.4 µM
[37]
  TGI: 20.1 µM
[38]
  TGI: 1.98 µM
[39]
  TGI: 26.4 µM
[40]
  TGI: 1.23 µM
[41]
  TGI: 21.9 µM
[42]
  TGI: 22.9 µM
[43]
  TGI: 23.1 µM
[44]
  TGI: > 40.6 µM
[45]
  TGI: 12.3 µM
[46]
  TGI: 17.4 µM
[47]
  TGI: 14.3 µM
[48]
  TGI: 17.3 µM
[49]
  TGI: 48 µM
[50]
  TGI: 16.7 µM
[51]
  TGI: 45 µM
[52]
  TGI: 40.4 µM
[53]
  TGI: 2.73 µM
[54]
  TGI: 3.61 µM
[55]
  TGI: 11.7 µM
[56]
  TGI: > 51.3 µM
[57]
  TGI: 29.4 µM

## Cn1c(=O)c2c(nc(N/N=C3/SCC(=O)N3Cc3ccccc3)n2C)n(C)c1=O
[1]
  TGI: > 100 µM
[2]
  TGI: > 100 µM
[3]
  TGI: > 100 µM
[4]
  TGI: > 100 µM
[5]
  TGI: > 100 µM
[6]
  TGI: > 100 µM
[7]
  TGI: > 100 µM
[8]
  TGI: > 100 µM
[9]
  TGI: > 100 µM
[10]
  TGI: > 100 µM
[12]
  TGI: > 100 µM
[13]
  TGI: > 100 µM
[58]
  TGI: > 100 µM
[15]
  TGI: > 100 µM
[16]
  TGI: > 100 µM
[17]
  TGI: > 100 µM
[18]
  TGI: > 100 µM
[19]
  TGI: 66.3 µM
[20]
  TGI: > 100 µM
[21]
  TGI: > 100 µM
[22]
  TGI: > 100 µM
[23]
  TGI: > 100 µM
[24]
  TGI: > 100 µM
[25]
  TGI: > 100 µM
[26]
  TGI: > 100 µM
[27]
  TGI: > 100 µM
[28]
  TGI: > 100 µM
[29]
  TGI: > 100 µM
[30]
  TGI: > 100 µM
[32]
  TGI: > 100 µM
[33]
  TGI: 78.7 µM
[59]
  TGI: > 100 µM
[34]
  TGI: > 100 µM
[35]
  TGI: > 100 µM
[36]
  TGI: > 100 µM
[37]
  TGI: > 100 µM
[38]
  TGI: > 100 µM
[39]
  TGI: > 100 µM
[40]
  TGI: > 100 µM
[41]
  TGI: > 100 µM
[42]
  TGI: > 100 µM
[43]
  TGI: > 100 µM
[45]
  TGI: > 100 µM
[46]
  TGI: > 100 µM
[47]
  TGI: > 100 µM
[48]
  TGI: > 100 µM
[49]
  TGI: > 100 µM
[50]
  TGI: > 100 µM
[51]
  TGI: > 100 µM
[52]
  TGI: > 100 µM
[53]
  TGI: > 100 µM
[54]
  TGI: 90.4 µM
[57]
  TGI: > 100 µM

## COC(=O)[C@@H]1COC(=O)N1
[1]
  TGI: > 100 µM
[2]
  TGI: > 100 µM
[3]
  TGI: > 100 µM
[4]
  TGI: > 100 µM
[5]
  TGI: > 100 µM
[6]
  TGI: > 100 µM
[7]
  TGI: > 100 µM
[8]
  TGI: > 100 µM
[9]
  TGI: > 100 µM
[10]
  TGI: > 100 µM
[11]
  TGI: > 100 µM
[12]
  TGI: > 100 µM
[13]
  TGI: > 100 µM
[14]
  TGI: > 100 µM
[58]
  TGI: > 100 µM
[15]
  TGI: > 100 µM
[16]
  TGI: > 100 µM
[17]
  TGI: > 100 µM
[18]
  TGI: > 100 µM
[20]
  TGI: > 100 µM
[21]
  TGI: > 100 µM
[22]
  TGI: > 100 µM
[23]
  TGI: > 100 µM
[24]
  TGI: > 100 µM
[25]
  TGI: > 100 µM
[26]
  TGI: > 100 µM
[27]
  TGI: > 100 µM
[28]
  TGI: > 100 µM
[29]
  TGI: > 100 µM
[30]
  TGI: > 100 µM
[32]
  TGI: > 100 µM
[33]
  TGI: > 100 µM
[59]
  TGI: > 100 µM
[34]
  TGI: > 100 µM
[35]
  TGI: > 100 µM
[36]
  TGI: > 100 µM
[37]
  TGI: > 100 µM
[38]
  TGI: > 100 µM
[39]
  TGI: > 100 µM
[40]
  TGI: > 100 µM
[41]
  TGI: > 100 µM
[42]
  TGI: > 100 µM
[43]
  TGI: > 100 µM
[44]
  TGI: > 100 µM
[45]
  TGI: > 100 µM
[46]
  TGI: > 100 µM
[47]
  TGI: > 100 µM
[48]
  TGI: > 100 µM
[49]
  TGI: > 100 µM
[50]
  TGI: > 100 µM
[51]
  TGI: > 100 µM
[52]
  TGI: > 100 µM
[53]
  TGI: > 100 µM
[54]
  TGI: > 100 µM
[55]
  TGI: > 100 µM
[56]
  TGI: > 100 µM
[57]
  TGI: > 100 µM

## CCOC(=O)C1CCC(=O)N1C(=O)c1ccc(Cl)cc1 (stereo not given)
[1]
  TGI: > 100 µM
[2]
  TGI: > 100 µM
[4]
  TGI: > 100 µM
[5]
  TGI: > 100 µM
[6]
  TGI: > 100 µM
[7]
  TGI: > 100 µM
[8]
  TGI: > 100 µM
[9]
  TGI: > 100 µM
[10]
  TGI: > 100 µM
[11]
  TGI: > 100 µM
[12]
  TGI: > 100 µM
[13]
  TGI: > 100 µM
[14]
  TGI: > 100 µM
[58]
  TGI: > 100 µM
[15]
  TGI: > 100 µM
[16]
  TGI: > 100 µM
[18]
  TGI: > 100 µM
[19]
  TGI: > 100 µM
[20]
  TGI: > 100 µM
[21]
  TGI: > 100 µM
[22]
  TGI: > 100 µM
[23]
  TGI: > 100 µM
[24]
  TGI: > 100 µM
[25]
  TGI: > 100 µM
[26]
  TGI: > 100 µM
[27]
  TGI: > 100 µM
[28]
  TGI: > 100 µM
[29]
  TGI: > 100 µM
[30]
  TGI: > 100 µM
[31]
  TGI: > 100 µM
[32]
  TGI: > 100 µM
[33]
  TGI: > 100 µM
[59]
  TGI: > 100 µM
[34]
  TGI: > 100 µM
[35]
  TGI: > 100 µM
[36]
  TGI: > 100 µM
[37]
  TGI: > 100 µM
[38]
  TGI: > 100 µM
[39]
  TGI: > 100 µM
[41]
  TGI: > 100 µM
[42]
  TGI: > 100 µM
[43]
  TGI: > 100 µM
[44]
  TGI: > 100 µM
[45]
  TGI: > 100 µM
[46]
  TGI: > 100 µM
[49]
  TGI: > 100 µM
[50]
  TGI: > 100 µM
[51]
  TGI: > 100 µM
[52]
  TGI: > 100 µM
[54]
  TGI: > 100 µM
[55]
  TGI: > 100 µM
[56]
  TGI: > 100 µM
[57]
  TGI: > 100 µM

— PubChem BioAssay (NCI)
